Measured values from ChEMBL document CHEMBL3603819, “Targeting zoonotic viruses: Structure-based inhibition of the 3C-like protease from bat coronavirus HKU4--The likely reservoir host to the human coronavirus that causes Middle East Respiratory Syndrome (MERS)” (Bioorg Med Chem, 2015).

These compounds were tested on Tylonycteris bat coronavirus HKU4. Details: at 100 µM.

Structure (SMILES) | inhibition [%]
CC(C)(C)NC(=O)C(c1cccnc1)N(C(=O)c1ccco1)c1ccc(-c2c(F)cccc2F)cc1 (stereo not drawn) | 23
CC(C)(C)NC(=O)C(c1ccsc1)N(C(=O)Cn1nnc2ccccc21)c1ccc(NC(=O)C2CCCCC2)cc1 (stereo not drawn) | 21
CC(C)(C)NC(=O)C(c1ccsc1)N(C(=O)Cn1nnc2ccccc21)c1ccc(C(C)(C)C)cc1 (stereo not drawn) | 9
Cc1nc2ccccc2n1CC(=O)N(c1ccc(C(C)(C)C)cc1)C(C(=O)NC(C)(C)C)c1ccsc1 (stereo not drawn) | 19
CC(C)(C)NC(=O)C(c1cccnc1)N(C(=O)c1ncco1)c1ccc(C(C)(C)C)cc1 (stereo not drawn) | 30
CCCOc1ccc(N(C(=O)c2ccco2)C(C(=O)NC(C)(C)C)c2cccnc2)cc1 (stereo not drawn) | 10
COc1ncc(-c2ccc(N(Cc3ccsc3)C(=O)Cn3nnc4ccccc43)cc2)cn1 | 83
CC(C)(C)c1ccc(N(Cc2cccnc2)C(=O)c2c[nH]cn2)cc1 | 28
O=C(NCc1ccccc1)C(c1cccc(F)c1)N(C(=O)Cn1nnc2ccccc21)C1CC2CCC1C2 (stereo not drawn) | 12
CC(C)(C)NC(=O)C(c1ccsc1)N(C(=O)Cc1cccnc1)c1ccc(C(C)(C)C)cc1 (stereo not drawn) | 23
CC(C)(C)NC(=O)C(c1cccnc1)N(C(=O)c1ccc(Cl)o1)c1ccc(C(C)(C)C)cc1 (stereo not drawn) | 12
CC(C)c1ccc(N(C(=O)c2ccco2)C(C(=O)NC(C)(C)C)c2cccnc2)cc1 (stereo not drawn) | 34
CC(C)(C)NC(=O)C(c1ccsc1)N(C(=O)Cc1cccc2ccccc12)c1ccc(OCF)cc1 (stereo not drawn) | 17
CCC(=O)Nc1ccc(N(Cc2ccsc2)C(=O)Cn2nnc3ccccc32)cc1 | 92
CC(C)(C)NC(=O)C(c1ccsc1)N(C(=O)c1ccc(C(F)(F)F)nc1)C1CC1 (stereo not drawn) | 12
CC(C)(C)NC(=O)C(c1cccnc1)N(C(=O)c1ccc(C(F)(F)F)nc1)c1ccc(OCF)cc1 (stereo not drawn) | 15
Cc1nc2ccccc2n1CC(=O)N(c1ccc(NC(=O)C(C)C)cc1)C(C(=O)NC(C)(C)C)c1ccsc1 (stereo not drawn) | 14
CC(C)COC(=O)Nc1ccc(N(C(=O)Cn2nnc3ccccc32)C(C(=O)NC(C)(C)C)c2ccsc2)cc1 (stereo not drawn) | 19
CC(C)(C)NC(=O)C(c1c[nH]cn1)N(C(=O)c1ccco1)c1ccc(C(C)(C)C)cc1 (stereo not drawn) | 9
CC(C)c1ccc(N(C(=O)c2n[nH]c3ccccc23)C(C(=O)NC(C)(C)C)c2cccnc2)cc1 (stereo not drawn) | 21
Cc1nccn1CC(=O)N(c1ccc(NC(=O)C(C)C)cc1)C(C(=O)NC(C)(C)C)c1ccsc1 (stereo not drawn) | 18
CC(C)(C)NC(=O)C(c1ccsc1)N(C(=O)Cc1c[nH]c2ccccc12)c1ccc(C(C)(C)C)cc1 (stereo not drawn) | 31

Structure (SMILES) | inhibition [%]
CC(C)C(=O)Nc1ccc(N(Cc2ccsc2)C(=O)Cn2cc([Si](C)(C)C)nn2)cc1 | 15
CC(C)(C)NC(=O)C(c1cccnc1)N(C(=O)c1cnco1)c1ccc(C(C)(C)C)cc1 (stereo not drawn) | 96
O=C(Nc1ccc(N(Cc2ccsc2)C(=O)Cn2nnc3ccccc32)cc1)C1CCC1 | 94
COc1ncccc1-c1ccc(N(Cc2ccsc2)C(=O)Cn2nnc3ccccc32)cc1 | 90
CC(C)(C)NC(=O)C(c1cccnc1)N(C(=O)Cc1cnc[nH]1)c1ccc(C(C)(C)C)cc1 (stereo not drawn) | 24
CC(C)C(=O)Nc1ccc(N(C(=O)Cn2nnc3ccccc32)C(C(=O)NCc2ccccc2)c2cccc(F)c2)cc1 (stereo not drawn) | 62
O=C(Cn1nnc2ccccc21)N(Cc1ccsc1)c1ccc(NC(=O)C(F)(F)F)cc1 | 92
CC(C)(C)NC(=O)C(c1cccnc1)N(C(=O)c1ccco1)c1ccc(-c2cccc(F)c2F)cc1 (stereo not drawn) | 18
CC(=O)Nc1ccc(N(C(=O)Cn2ccnc2C)C(C(=O)NC(C)(C)C)c2ccsc2)cc1 (stereo not drawn) | 17
CC(C)(C)NC(=O)C(c1cccnc1)N(C(=O)Cc1c[nH]c2ccccc12)c1ccc(F)cc1 (stereo not drawn) | 41
Cc1ccc(C(=O)N(c2ccc(C(C)(C)C)cc2)C(C(=O)NC(C)(C)C)c2cccnc2)o1 (stereo not drawn) | 26
CC(C)(C)C(=O)Nc1ccc(N(Cc2ccsc2)C(=O)Cn2nnc3ccccc32)cc1 | 67
CC(C)(C)NC(=O)C(c1cn[nH]c1)N(C(=O)c1ccco1)c1ccc(C(C)(C)C)cc1 (stereo not drawn) | 12
COc1cccc(C(=O)N(c2ccc(C(C)(C)C)cc2)C(C(=O)NC(C)(C)C)c2cccnc2)c1 (stereo not drawn) | 17
Cc1ccoc1C(=O)N(c1ccc(C(C)C)cc1)C(C(=O)NC(C)(C)C)c1cccnc1 (stereo not drawn) | 36
CC(C)C(=O)Nc1ccc(N(Cc2ccsc2)C(=O)Cn2cc(-c3ccccc3)nn2)cc1 | 25
CC(C)(C)NC(=O)C(c1cccnc1)N(C(=O)Cc1cccnc1)c1ccc(C(C)(C)C)cc1 (stereo not drawn) | 23
CC(C)(C)NC(=O)C(c1cccnc1)N(C(=O)c1ccco1)c1ccc(Oc2ccccc2)cc1 (stereo not drawn) | 19
CC(C)(C)NC(=O)C(c1cccnc1)N(C(=O)c1ccc(C(F)(F)F)o1)c1ccc(C(C)(C)C)cc1 (stereo not drawn) | 16
CC(C)(C)NC(=O)[C@@H](c1cccnc1)N(C(=O)c1c[nH]cn1)c1ccc(C(C)(C)C)cc1 | 93
CCC(C)Oc1ccc(N(C(=O)c2ccco2)C(C(=O)NC(C)(C)C)c2cccnc2)cc1 (stereo not drawn) | 20
CC(C)(C)NC(=O)C(c1ccsc1)N(C(=O)c1n[nH]c2ccccc12)c1ccc(C(C)(C)C)cc1 (stereo not drawn) | 16

Structure (SMILES) | inhibition [%]
CC(C)(C)NC(=O)C(c1ccnnc1)N(C(=O)c1ccco1)c1ccc(C(C)(C)C)cc1 (stereo not drawn) | 35
CC(C)(C)NC(=O)C(c1ccsc1)N(C(=O)c1ccco1)c1ccc(F)cc1 (stereo not drawn) | 16
CC(C)(C)OC(=O)n1cccc1-c1ccc(N(Cc2ccsc2)C(=O)Cn2nnc3ccccc32)cc1 | 31
CC(C)(C)NC(=O)C(c1cccc(F)c1)N(C(=O)Cn1nnc2ccccc21)C12CC3CC(CC(C3)C1)C2 (stereo not drawn) | 14
CC(C)c1ccc(N(C(=O)c2cccc3c2CCCC3)C(C(=O)NC(C)(C)C)c2cccnc2)cc1 (stereo not drawn) | 25
CC(C)(C)NC(=O)C(c1ccsc1)N(C(=O)Cc1cccc2ccccc12)c1ccc(F)cc1 (stereo not drawn) | 15
CC(C)(C)NC(=O)C(c1ccsc1)N(C(=O)c1ccco1)c1ccc(C(C)(C)C)cc1 (stereo not drawn) | 19
CC(C)(C)NC(=O)C(c1cccnc1)N(C(=O)c1ccco1)c1ccc(-c2ccccn2)cc1 (stereo not drawn) | 15
CC(C)(C)NC(=O)C(c1cccnc1)N(C(=O)c1n[nH]c2ccccc12)C1CC1 (stereo not drawn) | 21
CC(C)(C)NC(=O)C(c1ccsc1)N(C(=O)Cn1nnc2ccccc21)c1ccc(N)cc1 (stereo not drawn) | 64
CC(C)(C)NC(=O)C(c1ccsc1)N(C(=O)c1cccc2c1CCCC2)c1ccc(OCF)cc1 (stereo not drawn) | 15
CC(C)(C)NC(=O)C(c1cc[nH]n1)N(C(=O)c1ccco1)c1ccc(C(C)(C)C)cc1 (stereo not drawn) | 11
CC(C)(C)NC(=O)C(c1cccnc1)N(C(=O)c1coc2ccccc12)c1ccc(C(C)(C)C)cc1 (stereo not drawn) | 19
CC(C)(C)NC(=O)C(c1ccsc1)N(C(=O)Cc1cccc2ccccc12)C1CC1 (stereo not drawn) | 22
CC(C)(C)NC(=O)C(c1ccc(C(C)(C)C)cc1)N(C(=O)c1ccco1)c1ccc(C(C)(C)C)cc1 (stereo not drawn) | 26
CC(C)(C)NC(=O)C(c1cccnc1)N(C(=O)Cc1cccc2ccccc12)c1ccc(C(C)(C)C)cc1 (stereo not drawn) | 26
CC(C)(C)NC(=O)C(c1ccsc1)N(C(=O)c1ccco1)C1CC1 (stereo not drawn) | 18
O=C(Nc1ccc(N(C(=O)Cn2nnc3ccccc32)C(C(=O)NCc2ccccc2)c2cccc(F)c2)cc1)C1CC1 (stereo not drawn) | 71
CC(C)(C)NC(=O)C(c1c[nH]nn1)N(C(=O)c1ccco1)c1ccc(C(C)(C)C)cc1 (stereo not drawn) | 16
CC(C)(C)NC(=O)C(c1cccnc1)N(C(=O)c1ccc(C#N)cc1)C1CC1 (stereo not drawn) | 23
CC(C)(C)NC(=O)C(c1cncnc1)N(C(=O)c1cnco1)c1ccc(C(C)(C)C)cc1 (stereo not drawn) | 58
CC(C)c1ccc(N(C(=O)c2ccc(C#N)cc2)C(C(=O)NC(C)(C)C)c2ccsc2)cc1 (stereo not drawn) | 21

Structure (SMILES) | inhibition [%]
CC(C)(C)NC(=O)[C@H](c1cccnc1)N(C(=O)c1c[nH]cn1)c1ccc(C(C)(C)C)cc1 | 44
CC(C)(C)NC(=O)[C@H](c1cccnc1)N(C(=O)c1ccco1)c1ccc(C(C)(C)C)cc1 | 65
CC(C)(C)NC(=O)C(c1cccnc1)N(C(=O)c1ccco1)c1ccc(-c2ccnc(F)c2)cc1 (stereo not drawn) | 16
CC(C)(C)NC(=O)C(c1cccnc1)N(C(=O)Cc1cccc2ccccc12)c1ccc(OCF)cc1 (stereo not drawn) | 21
CC(C)(C)NC(=O)C(c1cccnc1)N(C(=O)c1ccco1)c1ccc(F)cc1 (stereo not drawn) | 41
CC(C)(C)NC(=O)C(c1cccnc1)N(C(=O)c1ccco1)c1ccc(OC(F)F)cc1 (stereo not drawn) | 31
COCC(=O)Nc1ccc(N(Cc2ccsc2)C(=O)Cn2nnc3ccccc32)cc1 | 91
CC(=O)Nc1ccc(N(C(=O)Cn2cnc3ccccc32)C(C(=O)NC(C)(C)C)c2ccsc2)cc1 (stereo not drawn) | 14
CC(C)(C)NC(=O)C(c1ccsc1)N(C(=O)c1n[nH]c2ccccc12)c1ccc(OC(F)F)cc1 (stereo not drawn) | 17
CC(C)(C)NC(=O)C(c1cccnc1)N(C(=O)c1ccc(Cl)cc1)c1ccc(C(C)(C)C)cc1 (stereo not drawn) | 27
Cc1nccn1CC(=O)N(c1ccc(N)cc1)C(C(=O)NC(C)(C)C)c1ccsc1 (stereo not drawn) | 17
CC(C)(C)NC(=O)C(c1ccsc1)N(C(=O)c1ccco1)c1ccc(OC(F)F)cc1 (stereo not drawn) | 13
O=C(Nc1ccc(N(Cc2ccsc2)C(=O)Cn2nnc3ccccc32)cc1)c1ccccc1 | 90
CC(C)(C)NC(=O)C(c1cccnc1)N(C(=O)c1cccc2c1CCCC2)c1ccc(C(C)(C)C)cc1 (stereo not drawn) | 21
CC(C)C(=O)Nc1ccc(N(C(=O)Cn2nnc3ccccc32)C(C(=O)NC(C)(C)C)c2ccsc2)cc1 (stereo not drawn) | 76
CCC(C)c1ccc(N(C(=O)c2ccco2)[C@@H](C(=O)NC(C)(C)C)c2cccnc2)cc1 (stereo partly drawn) | 20
CC(C)(C)NC(=O)C(c1cccnc1)N(C(=O)Cc1cccc2ccccc12)C1CC1 (stereo not drawn) | 11
O=C(Nc1ccc(N(C(=O)Cn2nnc3ccccc32)C(C(=O)NCc2ccccc2)c2cccc(F)c2)cc1)C1CCC1 (stereo not drawn) | 74
CC(=O)Nc1ccc(N(C(=O)Cn2nnc3ccccc32)C(C(=O)NC(C)(C)C)c2cccc(F)c2)cc1 (stereo not drawn) | 71
CC(C)(C)NC(=O)C(c1cccnc1)N(C(=O)c1ccco1)C1CCCCC1 (stereo not drawn) | 6
CC(C)c1ccc(N(C(=O)c2n[nH]c3ccccc23)C(C(=O)NC(C)(C)C)c2ccsc2)cc1 (stereo not drawn) | 11
COc1ccc(N(C(=O)c2ccco2)C(C(=O)NC(C)(C)C)c2cccnc2)cc1 (stereo not drawn) | 10
